Measurements from PMC12796986 (Journal of medicinal chemistry, 2025).
Where two headings read alike, the source gives them in different places.

Molecular target: mpox resolvase (Mpr) (Monkeypox virus, UniProt A0A7H0DNC1)
Experiment: biochemical
Assay type: biochemical

Chain of mpox resolvase (Mpr) (A0A7H0DNC1 whole entry, looked up): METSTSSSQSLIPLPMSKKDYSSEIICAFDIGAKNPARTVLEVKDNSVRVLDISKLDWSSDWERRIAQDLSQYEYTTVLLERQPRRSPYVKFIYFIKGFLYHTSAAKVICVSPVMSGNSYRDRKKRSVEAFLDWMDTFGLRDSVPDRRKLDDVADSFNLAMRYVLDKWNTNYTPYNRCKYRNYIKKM

Structure (SMILES) | IC50 [nM] | further results
O=c1c(-c2ccccc2)c(O)c2cc(-c3cncnc3)cnc2n1O [4a-26, 1,4-dihydroxy-3-phenyl-6-(pyrimidin-5-yl)-1,8-naphthyridin-2(1H)-one] | 15000 ± 1000 | –
CCc1c(O)c2cc(-c3ccc4cc(OC)ccc4c3)cnc2n(O)c1=O [4b-4, 3-ethyl-1,4-dihydroxy-6-(6-methoxynaphthalen-2-yl)-1,8-naphthyridin-2(1H)-one] | 1600 ± 300 | –
O=c1cc(O)c2cc(-c3cccc(-c4ccccc4)c3)cnc2n1O [4c-1, 6-([1,1’-biphenyl]-3-yl)-1,4-dihydroxy-1,8-naphthyridin-2(1H)-one] | 120 ± 10 | –
CCc1c(O)c2cc(-c3ccc(OC)c(F)c3)cnc2n(O)c1=O [4b-10, 3-ethyl-6-(3-fluoro-4-methoxyphenyl)-1,4-dihydroxy-1,8-naphthyridin-2(1H)-one] | 5000 ± 1000 | –
O=c1c(-c2ccccc2)c(O)c2cc(-c3c(F)cc(F)cc3F)cnc2n1O [4a-24, 1,4-dihydroxy-3-phenyl-6-(2,4,6-trifluorophenyl)-1,8-naphthyridin-2(1H)-one] | – | fluorescence quenching in the FRET assay: fluorescence quenching
O=c1cc(O)c2cc(-c3ccc(Oc4ccccc4)cc3)cnc2n1O [4c-3, 1,4-dihydroxy-6-(4-phenoxyphenyl)-1,8-naphthyridin-2(1H)-one] | – | fluorescence quenching in the FRET assay: direct quenching of fluorophore
O=c1c(-c2ccccc2)c(O)c2cc(-c3ccccc3F)cnc2n1O [4a-6, 6-(2-fluorophenyl)-1,4-dihydroxy-3-phenyl-1,8-naphthyridin-2(1H)-one] | 1100 ± 100 | –
CCc1c(O)c2cc(-c3ccsc3)cnc2n(O)c1=O [4b-11, 3-ethyl-1,4-dihydroxy-6-(thiophen-3-yl)-1,8-naphthyridin-2(1H)-one] | 3900 ± 100 | –
CCc1c(O)c2cc(-c3cccc(-c4ccccc4)c3)cnc2n(O)c1=O [4b-1, 6-([1,1’-biphenyl]-3-yl)-3-ethyl-1,4-dihydroxy-1,8-naphthyridin-2(1H)-one] | 800 ± 30 | –
CCc1c(O)c2cc(-c3ccc(SC)cc3)cnc2n(O)c1=O [4b-8, 3-ethyl-1,4-dihydroxy-6-(4-(methylthio)phenyl)-1,8-naphthyridin-2(1H)-one] | 700 ± 100 | –
O=c1c(-c2ccccc2)c(O)c2cc(-c3ccc4c(c3)OCO4)cnc2n1O [4a-19, 6-(benzo[d][1,3]dioxol-5-yl)-1,4-dihydroxy-3-phenyl-1,8-naphthyridin-2(1H)-one] | 1100 ± 100 | –
CSc1ccc(-c2ccnc3c2c(O)cc(=O)n3O)cc1 [5-4, 1,4-dihydroxy-5-(4-(methylthio)phenyl)-1,8-naphthyridin-2(1H)-one] | 120 ± 10 | –
O=c1c(-c2ccccc2)c(O)c2cc(-c3cnc4ccccc4c3)cnc2n1O [4a-29, 1,4-dihydroxy-3-phenyl-6-(quinolin-3-yl)-1,8-naphthyridin-2(1H)-one] | – | Mpr inhibition: did not inhibit Mpr
CCc1c(O)c2cc(-c3ccccc3)cnc2n(O)c1=O [4b-5, 3-ethyl-1,4-dihydroxy-6-phenyl-1,8-naphthyridin-2(1H)-one] | 5300 ± 200 | –
COc1ccc(-c2cnc3c(c2)c(O)cc(=O)n3O)cc1F [4c-10, 6-(3-fluoro-4-methoxyphenyl)-1,4-dihydroxy-1,8-naphthyridin-2(1H)-one] | 2500 ± 500 | –
O=c1c(-c2ccccc2)c(O)c2cc(-c3ccco3)cnc2n1O [4a-27, 6-(furan-2-yl)-1,4-dihydroxy-3-phenyl-1,8-naphthyridin-2(1H)-one] | 4000 ± 200 | –
O=c1c(-c2ccccc2)c(O)c2cc(-c3ccc(-c4ccccc4)cc3)cnc2n1O [4a-2, 6-([1,1’-biphenyl]-4-yl)-1,4-dihydroxy-3-phenyl-1,8-naphthyridin-2(1H)-one] | 250 ± 10 | –
NS(=O)(=O)c1ccc(-c2cnc3c(c2)c(O)c(-c2ccccc2)c(=O)n3O)cc1 [4a-21, 4-(5,8-dihydroxy-7-oxo-6-phenyl-7,8-dihydro-1,8-naphthyridin-3-yl)benzenesulfonamide] | 1500 ± 100 | –
O=c1c(-c2ccccc2)c(O)c2cc(-c3ccc(F)cc3F)cnc2n1O [4a-22, 6-(2,4-difluorophenyl)-1,4-dihydroxy-3-phenyl-1,8-naphthyridin-2(1H)-one] | – | fluorescence quenching in the FRET assay: fluorescence quenching
CSc1cccc(-c2cnc3c(c2)cc(-c2ccccc2)c(=O)n3O)c1 [6-2, 1-hydroxy-6-(3-(methylthio)phenyl)-3-phenyl-1,8-naphthyridin-2(1H)-one] | > 50000 | –
O=c1c(-c2ccccc2)c(O)c2cc(C3CC3)cnc2n1O [4a-30, 6-cyclopropyl-1,4-dihydroxy-3-phenyl-1,8-naphthyridin-2(1H)-one] | 8000 ± 1000 | –
O=c1cc(O)c2cc(-c3ccccc3F)cnc2n1O [4c-6, 6-(2-fluorophenyl)-1,4-dihydroxy-1,8-naphthyridin-2(1H)-one] | 1000 ± 100 | –
O=c1cc(O)c2cc(-c3ccsc3)cnc2n1O [4c-11, 1,4-dihydroxy-6-(thiophen-3-yl)-1,8-naphthyridin-2(1H)-one] | – | fluorescence quenching in the FRET assay: direct quenching of fluorophore
O=c1cc(O)c2cc(-c3ccc(-c4ccccc4)cc3)cnc2n1O [4c-2, 6-([1,1’-biphenyl]-4-yl)-1,4-dihydroxy-1,8-naphthyridin-2(1H)-one] | – | fluorescence quenching in the FRET assay: direct quenching of fluorophore

Structure (SMILES) | IC50 [nM] | further results
O=c1c(-c2ccccc2)c(O)c2cc(-c3ccc(C(F)(F)F)cc3C(F)(F)F)cnc2n1O [4a-23, 6-(2,4-bis(trifluoromethyl)phenyl)-1,4-dihydroxy-3-phenyl-1,8-naphthyridin-2(1H)-one] | 2700 ± 400 | –
O=c1c(-c2ccccc2)c(O)c2cc(-c3ccc(O)cc3)cnc2n1O [4a-15, 1,4-dihydroxy-6-(4-hydroxyphenyl)-3-phenyl-1,8-naphthyridin-2(1H)-one] | 1500 ± 100 | –
CCc1c(O)c2cc(-c3ccccc3F)cnc2n(O)c1=O [4b-6, 3-ethyl-6-(2-fluorophenyl)-1,4-dihydroxy-1,8-naphthyridin-2(1H)-one] | 2100 ± 900 | –
Cc1ccc(-c2cnc3c(c2)c(O)c(-c2ccccc2)c(=O)n3O)cc1 [4a-16, 1,4-dihydroxy-3-phenyl-6-(p-tolyl)-1,8-naphthyridin-2(1H)-one] | 1900 ± 400 | –
CC(=O)c1ccc(-c2cnc3c(c2)c(O)c(-c2ccccc2)c(=O)n3O)s1 [4a-28, 6-(5-acetylthiophen-2-yl)-1,4-dihydroxy-3-phenyl-1,8-naphthyridin-2(1H)-one] | – | fluorescence quenching in the FRET assay: fluorescence quenching
O=c1cc(O)c2cc(-c3ccc(C(F)(F)F)cc3)cnc2n1O [4c-7, 1,4-dihydroxy-6-(4-(trifluoromethyl)phenyl)-1,8-naphthyridin-2(1H)-one] | 470 ± 50 | –
CCc1c(O)c2cc(-c3ccc(C(F)(F)F)cc3)cnc2n(O)c1=O [4b-7, 3-ethyl-1,4-dihydroxy-6-(4-(trifluoromethyl)phenyl)-1,8-naphthyridin-2(1H)-one] | 2500 ± 100 | –
O=c1c(-c2ccccc2)c(O)c2cc(-c3cccnc3)cnc2n1O [4a-25, 1,4-dihydroxy-3-phenyl-6-(pyridin-3-yl)-1,8-naphthyridin-2(1H)-one] | 12000 ± 1000 | –
CSc1cccc(-c2cnc3c(c2)c(O)c(-c2ccccc2)c(=O)n3O)c1 [4a-17, 1,4-dihydroxy-6-(3-(methylthio)phenyl)-3-phenyl-1,8-naphthyridin-2(1H)-one] | 600 ± 100 | –
O=c1c(-c2ccccc2)c(O)c2cc(Br)cnc2n1O [4a-14, 6-bromo-1,4-dihydroxy-3-phenyl-1,8-naphthyridin-2(1H)-one] | 7600 ± 100 | –
O=c1c(-c2ccccc2)c(O)c2cccnc2n1O [4a-31, 1,4-dihydroxy-3-phenyl-1,8-naphthyridin-2(1H)-one] | 17000 ± 1000 | –
COc1ccc2cc(-c3cnc4c(c3)c(O)c(-c3ccccc3)c(=O)n4O)ccc2c1 [4a-4, 1,4-dihydroxy-6-(6-methoxynaphthalen-2-yl)-3-phenyl-1,8-naphthyridin-2(1H)-one] | 970 ± 30 | –
COc1ccc(OC)c(-c2cnc3c(c2)c(O)cc(=O)n3O)c1 [4c-9, 6-(2,5-dimethoxyphenyl)-1,4-dihydroxy-1,8-naphthyridin-2(1H)-one] | 1600 ± 100 | –
COc1ccc(OC)c(-c2cnc3c(c2)c(O)c(-c2ccccc2)c(=O)n3O)c1 [4a-9, 6-(2,5-dimethoxyphenyl)-1,4-dihydroxy-3-phenyl-1,8-naphthyridin-2(1H)-one] | 1400 ± 100 | –
O=c1cc(O)c2cc(Br)cnc2n1O [4c-14, 6-bromo-1,4-dihydroxy-1,8-naphthyridin-2(1H)-one] | 9000 ± 1000 | –
CSc1ccc(-c2cnc3c(c2)c(O)cc(=O)n3O)cc1 [4c-8, 1,4-dihydroxy-6-(4-(methylthio)phenyl)-1,8-naphthyridin-2(1H)-one] | – | fluorescence quenching in the FRET assay: direct quenching of fluorophore
O=c1c(-c2ccccc2)c(O)c2cc(-c3ccsc3)cnc2n1O [4a-11, 1,4-dihydroxy-3-phenyl-6-(thiophen-3-yl)-1,8-naphthyridin-2(1H)-one] | 1300 ± 300 | –
O=c1c(-c2ccccc2)c(O)c2cc(-c3ccc(C(F)(F)F)cc3)cnc2n1O [4a-7, 1,4-dihydroxy-3-phenyl-6-(4-(trifluoromethyl)phenyl)-1,8-naphthyridin-2(1H)-one] | 600 ± 100 | –
O=c1c(-c2ccccc2)cc2cc(-c3cccc(-c4ccccc4)c3)cnc2n1O [6-1, 6-([1,1’-biphenyl]-3-yl)-1-hydroxy-3-phenyl-1,8-naphthyridin-2(1H)-one] | > 50000 | –
CCc1c(O)c2cc(-c3cc(OC)ccc3OC)cnc2n(O)c1=O [4b-9, 6-(2,5-dimethoxyphenyl)-3-ethyl-1,4-dihydroxy-1,8-naphthyridin-2(1H)-one] | 1500 ± 100 | –
Cc1ccc(-c2cnc3c(c2)c(O)cc(=O)n3O)cc1F [4c-13, 6-(3-fluoro-4-methylphenyl)-1,4-dihydroxy-1,8-naphthyridin-2(1H)-one] | – | fluorescence quenching in the FRET assay: direct quenching of fluorophore
NC(=O)c1cccc(-c2cnc3c(c2)c(O)cc(=O)n3O)c1 [4c-12, 3-(5,8-dihydroxy-7-oxo-7,8-dihydro-1,8-naphthyridin-3-yl) benzamide] | – | IC50 (read-out: Mpr IC50): 15000 ± 2000 nM
N#Cc1ccc(-c2cnc3c(c2)c(O)c(-c2ccccc2)c(=O)n3O)cc1 [4a-20, 4-(5,8-dihydroxy-7-oxo-6-phenyl-7,8-dihydro-1,8-naphthyridin-3-yl) benzonitrile] | 1900 ± 200 | –
O=c1cc(O)c2cc(-c3ccccc3)cnc2n1O [4c-5, 1,4-dihydroxy-6-phenyl-1,8-naphthyridin-2(1H)-one] | 1800 ± 10 | –
